Data as given in PubChem BioAssay AID2060906 (Molecular Pharmacology Branch, DTP, NCI, 2025).

System: 485176-168-R4-J1-PDC complex spheroid growth
Assay: Anticancer human tumor 485176-168-R4-J1-PDC patient-derived pancreatic adenocarcinoma cell line growth inhibition [RAS]
Conditions: for IC50: curve of first compound; for viability, T/C: stronger effect = lower value
Text: RAS pathway inhibitors in Combinations in Complex Spheroids
A high-throughput screen of multi-cell type tumor spheroids was designed to identify active combinations of RAS pathway inhibitors and targeted small molecules. Complex spheroids include a stromal component modeled by human endothelial cells (HUVEC) and fibroblasts modeled by human mesenchymal stem cells (MSCs). The concentration ranges selected for each drug and investigational agent were based upon clinically achievable concentrations if the clinical Cmax of the agent was known.
Compounds. The drugs and investigational agents: abemaciclib (NSC768073), cobimetinib (NSC768068), divarasib (GDC6063, NSC841802), docetaxel (NSC628503), GDC-1971 (RLY-1971, NSC841576), gemcitabine (NSC613327), inavolisib (NSC800729), ipatasertib (NSC767898), KB-0742 (NSC834161), MRTX-1133 (NSC836407), osimertinib (NSC779217), RMC-4630 (NSC839698), RMC-6236 (NSC851965), RMC-6291 (NSC852671), Ro-3306 (NSC812927), sapanisertib (NSC764658), SN-38 (NSC673596), staurosporine (NSC755774), SY5609 (NSC837396), and tovorafenib (DAY101, NSC766906), were obtained from the National Cancer Institute (NCI) Developmental Therapeutics Program Chemical Repository. The FDA-approved anticancer drug set is available from the NCI Developmental Therapeutics Program. […] The stock solutions were prepared in dimethyl sulfoxide (DMSO, Sigma-Aldrich, St. Louis, MO, cat. D2650) at 800-fold the tested concentration and stored at -70 degrees C prior to their use. All drugs and investigational agents were tested over a range starting from a high concentration at or near the clinical Cmax and decreasing in half-log increments. If the clinical Cmax for an agent had not been determined, the highest concentration tested was 10 microM.
Cell Culture. All cells were maintained in an incubator at 37 degrees C and 5% CO2 with 95% humidity. The PDC lines were cultured according to standard operating procedures established by the NCI PDMR. All PDCs were thawed and cultured in Matrigel-coated flasks prepared with a working solution of 1X Ham's F-12 nutrient mix, without supplementation (Invitrogen, Waltham, MA, cat. 11765054), 100 U/mL penicillin-streptomycin (Invitrogen, cat. 15140122), and 2.5% Matrigel (Corning Inc., Corning, NY, cat. 354248) for the first three passages. The 362531-283-R-J2-PDC and 782815-120-R-J1-PDC lines were cultured in 6C/Colon 1B media, which includes advanced DMEM/F-12 (Thermo Fisher Scientific, cat. 12634028), 10 mM HEPES (Thermo Fisher Scientific, cat. 15630080), 1X GlutaMAX supplement (Thermo Fisher Scientific, cat. 35050061), 0.1 mg/mL primocin (InvivoGen, San Diego, CA, cat. ant-pm-2), 10% defined fetal bovine serum, heat inactivated (HyClone Laboratories Inc., Logan, UT, cat. SH30070.03HI), 50% L-WRN conditioned media (ATCC, cat. CRL-3276), 1.25 mM N-Acetyl-L-cysteine (Sigma-Aldrich, cat. A9165), 10 mM nicotinamide (Sigma-Aldrich, cat. N0636), 1X B-27 supplement (Thermo Fisher Scientific, cat. 17504044), 1X N-2 supplement (Thermo Fisher Scientific, cat. 17502048), 50 ng/mL human EGF (Thermo Fisher Scientific, cat. PHG0311), and 10 microM Y-27632 dihydrochloride (Tocris Bioscience, cat. 1254). The K12877-001-R-J1-PDC line was cultured in 6I media, which includes all 6C/Colon 1B media plus 10 ng/mL human FGF-10 (PeproTech, cat. 100-26), 1 ng/mL human FGF-2 (PeproTech, cat. 100-18B), 1 µM prostaglandin E2 (Tocris Bioscience, cat. 2296), […] hydrocortisone (Sigma-Aldrich, cat. H4001), and […] bovine insulin (Sigma-Aldrich, cat. I6634). The K86415-001-R-J1-PDC line was cultured in 6D media, which includes all 6C/Colon 1B media components minus the L-WRN conditioned media. The 485176-168-R4-J1-PDC was cultured in PANC media, which includes all 6C/Colon 1B media plus 100 ng/mL human FGF-10 (PeproTech, cat. 100-26), 500 nM SB-431542 (Selleckchem, cat. S1067), and 10 nM gastrin (Tocris Bioscience, cat. 3006). […]
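Also: spheroids exposed to compounds for seven days before readout.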
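For viability, T/C in this document: luminescence viability expressed relative to DMSO vehicle wells set as 100%.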

For CC1(O)CCCC1n1c(=O)c(C(F)F)cc2cnc(NC3CCN(S(C)(=O)=O)CC3)nc21 (configuration not stated) + C=CC(=O)N1CCN(c2nc(OCC3CCCN3C)nc3c(F)c(-c4nc(N)cc(C)c4C(F)(F)F)c(Cl)cc23)C(C)C1, the IC50 (second compound 0.00316 µM) was 1970 nM, the IC50 (second compound 0.01 µM) was 2340 nM and the IC50 (second compound 0.0316 µM) was 2090 nM. It also gave an IC50 (second compound 0.1 µM) of 2220 nM, an IC50 (second compound 0.316 µM) of 3650 nM and an IC50 (second compound 1 µM) of 1810 nM. It also gave a viability, T/C (second compound 0.00316 µM, first compound 0.0316 µM) of 97%, a viability, T/C (second compound 0.00316 µM, first compound 0.1 µM) of 77.5% and a viability, T/C (second compound 0.00316 µM, first compound 0.316 µM) of 59%. It also gave a viability, T/C (second compound 0.00316 µM, first compound 1 µM) of 60.3%, a viability, T/C (second compound 0.00316 µM, first compound 3.16 µM) of 55.9% and a viability, T/C (second compound 0.00316 µM, first compound 10 µM) of 4.16%. The viability, T/C (second compound 0.01 µM, first compound 0.0316 µM) was 80.2%, the viability, T/C (second compound 0.01 µM, first compound 0.1 µM) was 61.8% and the viability, T/C (second compound 0.01 µM, first compound 0.316 µM) was 66.7%. It also gave a viability, T/C (second compound 0.01 µM, first compound 1 µM) of 67.7%, a viability, T/C (second compound 0.01 µM, first compound 3.16 µM) of 43.9% and a viability, T/C (second compound 0.01 µM, first compound 10 µM) of 2.59%. The viability, T/C (second compound 0.0316 µM, first compound 0.0316 µM) was 91.2%, the viability, T/C (second compound 0.0316 µM, first compound 0.1 µM) was 81.6% and the viability, T/C (second compound 0.0316 µM, first compound 0.316 µM) was 70.2%. For the same compound, the viability, T/C (second compound 0.0316 µM, first compound 1 µM) was 58%, the viability, T/C (second compound 0.0316 µM, first compound 3.16 µM) was 51.5% and the viability, T/C (second compound 0.0316 µM, first compound 10 µM) was 2.26%. For the same compound, the viability, T/C (second compound 0.1 µM, first compound 0.0316 µM) was 91.8%, the viability, T/C (second compound 0.1 µM, first compound 0.1 µM) was 74.5% and the viability, T/C (second compound 0.1 µM, first compound 0.316 µM) was 68.9%. It also gave a viability, T/C (second compound 0.1 µM, first compound 1 µM) of 68.7%, a viability, T/C (second compound 0.1 µM, first compound 3.16 µM) of 45% and a viability, T/C (second compound 0.1 µM, first compound 10 µM) of 3.32%. For the same compound, the viability, T/C (second compound 0.316 µM, first compound 0.0316 µM) was 103%, the viability, T/C (second compound 0.316 µM, first compound 0.1 µM) was 62.5% and the viability, T/C (second compound 0.316 µM, first compound 0.316 µM) was 73.4%. It also gave a viability, T/C (second compound 0.316 µM, first compound 1 µM) of 68.1%, a viability, T/C (second compound 0.316 µM, first compound 3.16 µM) of 62% and a viability, T/C (second compound 0.316 µM, first compound 10 µM) of 3.67%. For the same compound, the viability, T/C (second compound 1 µM, first compound 0.0316 µM) was 104%, the viability, T/C (second compound 1 µM, first compound 0.1 µM) was 86.8% and the viability, T/C (second compound 1 µM, first compound 0.316 µM) was 69.4%. For the same compound, the viability, T/C (second compound 1 µM, first compound 1 µM) was 49.1%, the viability, T/C (second compound 1 µM, first compound 3.16 µM) was 62.6% and the viability, T/C (second compound 1 µM, first compound 10 µM) was 2.11%.
